In the test the test system is P388 leukemia ip, CD2F1 mice, survival T/C. Nature of the test: NCI In Vivo Anticancer Drug Screen. Data for tumor model P388 Leukemia (intraperitoneal) in CD2F1 (CDF1) mice. To be noted: endpoint: median survival time, higher = longer survival. The procedure, abridged: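 Mice carrying the transplanted tumor received test compound or vehicle. Survival was recorded in each group, and the value is the treated-group measurement divided by that of the vehicle-treated control group.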

Where [1] appears, read: dose: 60.0 mg/kg/injection, schedule: Q01DX005 (ip), vehicle: saline with Tween-80.
The mark [2] stands for this setting: dose: 120.0 mg/kg/injection, schedule: Q01DX005 (ip), vehicle: saline with Tween-80.
[3] abbreviates: dose: 240.0 mg/kg/injection, schedule: Q01DX005 (ip), vehicle: saline with Tween-80.
Where [4] appears, read: dose: 15.0 mg/kg/injection, schedule: Q01DX005 (ip), vehicle: saline with Tween-80.
The mark [5] stands for this setting: dose: 30.0 mg/kg/injection, schedule: Q01DX005 (ip), vehicle: saline with Tween-80.
Setting [6] is: dose: 50.0 mg/kg/injection, schedule: Q01DX005 (ip), vehicle: saline with Tween-80.
[7] abbreviates: dose: 100.0 mg/kg/injection, schedule: Q01DX005 (ip), vehicle: saline with Tween-80.
The mark [8] stands for this setting: dose: 200.0 mg/kg/injection, schedule: Q01DX005 (ip), vehicle: saline with Tween-80.

Where “and” joins values, the source holds several entries; their conditions need not be identical. Equal values may be shown once. Toxic doses and inconclusive results are not listed.

As for `CCC1(C)C(=O)SC(=S)N1C` (centres undefined), the T/C by setting is: (dose: 50.0 mg/kg/injection, schedule: Q01DX005 (ip), vehicle: Klucel (hydroxypropylcellulose) (HPC)) 101 % of control; (dose: 100.0 mg/kg/injection, schedule: Q01DX005 (ip), vehicle: Klucel (hydroxypropylcellulose) (HPC)) 97 % of control; (dose: 200.0 mg/kg/injection, schedule: Q01DX005 (ip), vehicle: Klucel (hydroxypropylcellulose) (HPC)) 103 % of control.
In the case of `Cc1ccc(NC(=O)Oc2ccc(C#N)cc2)c(C)c1`, the T/C under setting [1] was 92 % of control, the T/C under setting [2] was 95 % of control and the T/C under setting [3] was 101 % of control.
For the molecule `CCOC(=O)c1cc(/C=C/c2cccc(Cl)c2)on1`, the T/C under setting [4] was 93 % of control; the T/C under setting [5] is 100 % of control and 90 % of control; the T/C under setting [1] is 90 % of control; the T/C under setting [2] is 93 % of control; the T/C under setting [3] is 95 % of control.
Take `NC1=NS(=O)(=O)c2ccccc21`: the T/C runs as follows: under setting [6], 101 % of control; under setting [7], 106 % of control; under setting [8], 99 % of control.
Turning to `CC/C(=C(/O)c1ccccc1)c1nc2ccc(Cl)cc2[nH]c1=O`, the T/C reads like this: (dose: 60.0 mg/kg/injection, schedule: Q01DX005 (ip), vehicle: Klucel + Tween-80) 100 % of control; (dose: 120.0 mg/kg/injection, schedule: Q01DX005 (ip), vehicle: Klucel + Tween-80) 93 % of control; (dose: 240.0 mg/kg/injection, schedule: Q01DX005 (ip), vehicle: Klucel + Tween-80) 98 % of control.
With `COC(=O)C1=C(C(=O)OC)C2C=CC1C1C(OC(C)=O)C(OC(C)=O)C21` (centres undefined), the T/C (dose: 50.0 mg/kg/injection, schedule: Q01DX009 (ip), vehicle: Klucel (hydroxypropylcellulose) (HPC)) is 100 % of control; the T/C (dose: 100.0 mg/kg/injection, schedule: Q01DX009 (ip), vehicle: Klucel (hydroxypropylcellulose) (HPC)) was 100 % of control; the T/C (dose: 200.0 mg/kg/injection, schedule: Q01DX009 (ip), vehicle: Klucel (hydroxypropylcellulose) (HPC)) is 107 % of control.
In the case of `N#CC1=C(O)/C(=C\c2ccc(Cl)cc2)N=C1N`, the T/C runs as follows: under setting [6], 88 % of control; under setting [7], 91 % of control; under setting [8], 94 % of control.
As for `CCOC(=O)C1=C(C(=O)c2ccc(OC)cc2)C(c2cccc([N+](=O)[O-])c2)C(C(=O)c2ccc(OC)cc2)=C(C(=O)OCC)N1`, the T/C is, setting by setting: under setting [5], 93 % of control; under setting [1], 90 % of control and 96 % of control; under setting [2], 94 % of control; under setting [3], 90 % of control.
Take `C(=N/NC1=NCCN1)/c1c2ccccc2c(/C=N\NC2=NCCN2)c2ccccc12`: the T/C by setting is: (dose: 0.05 mg/kg/injection, schedule: Q01DX009 (ip), vehicle: saline) 155 % of control; (dose: 0.2 mg/kg/injection, schedule: Q01DX009 (ip), vehicle: saline) 161 % of control; (dose: 0.39 mg/kg/injection, schedule: Q01DX009 (ip), vehicle: saline) 183 % of control; (dose: 0.78 mg/kg/injection, schedule: Q01DX009 (ip), vehicle: saline) 238 % of control; (dose: 1.56 mg/kg/injection, schedule: Q01DX009 (ip), vehicle: saline) 188 % of control and 193 % of control; (dose: 3.12 mg/kg/injection, schedule: Q01DX009 (ip), vehicle: saline) 204 % of control. Moreover, the T/C runs as follows: (dose: 5.18 mg/kg/injection, schedule: Q04DX002 (ip), vehicle: saline) 181 % of control; (dose: 6.25 mg/kg/injection, schedule: Q01DX009 (ip), vehicle: saline) 193 % of control; (dose: 7.78 mg/kg/injection, schedule: Q04DX002 (ip), vehicle: saline) 228 % of control; (dose: 8.64 mg/kg/injection, schedule: Q04DX002 (ip), vehicle: saline) 227 % of control; (dose: 12.5 mg/kg/injection, schedule: Q01DX009 (ip), vehicle: saline) 225 % of control; (dose: 13.0 mg/kg/injection, schedule: Q04DX002 (ip), vehicle: saline) 166 % of control. The T/C runs as follows: (dose: 14.4 mg/kg/injection, schedule: Q04DX002 (ip), vehicle: saline) 181 % of control; (dose: 21.6 mg/kg/injection, schedule: Q04DX002 (ip), vehicle: saline) 184 % of control; (dose: 24.0 mg/kg/injection, schedule: Q04DX002 (ip), vehicle: saline) 200 % of control; (dose: 25.0 mg/kg/injection, schedule: Q01DX009 (ip), vehicle: saline) 121 % of control; (dose: 29.0 mg/kg/injection, schedule: Q01DX001 (ip), vehicle: water) 195 % of control; (dose: 36.0 mg/kg/injection, schedule: Q04DX002 (ip), vehicle: saline) 210 % of control. Besides, the T/C reads like this: (dose: 40.0 mg/kg/injection, schedule: Q04DX002 (ip), vehicle: saline) 181 % of control; (dose: 60.0 mg/kg/injection, schedule: Q04DX002 (ip), vehicle: saline) 192 % of control; (dose: 87.0 mg/kg/injection, schedule: Q01DX001 (ip), vehicle: water) 222 % of control; (dose: 133.0 mg/kg/injection, schedule: Q01DX001 (ip), vehicle: water) 236 % of control; (dose: 200.0 mg/kg/injection, schedule: Q01DX001 (ip), vehicle: water) 286 % of control; (dose: 1.57 micrograms/kg/injection, schedule: Q01DX009 (ip), vehicle: saline) 100 % of control. The T/C (dose: 3.13 micrograms/kg/injection, schedule: Q01DX009 (ip), vehicle: saline) is 99 % of control; the T/C (dose: 6.25 micrograms/kg/injection, schedule: Q01DX009 (ip), vehicle: saline) is 107 % of control; the T/C (dose: 12.5 micrograms/kg/injection, schedule: Q01DX009 (ip), vehicle: saline) is 104 % of control; the T/C (dose: 25.0 micrograms/kg/injection, schedule: Q01DX009 (ip), vehicle: saline) is 109 % of control; the T/C (dose: 50.0 micrograms/kg/injection, schedule: Q01DX009 (ip), vehicle: saline) was 122 % of control.
Regarding `O=S1(=O)c2ccccc2N(c2ccccc2)c2nccn21`, the T/C (dose: 100.0 mg/kg/injection, schedule: Q01DX001 (ip), vehicle: saline with Tween-80) is 101 % of control; the T/C (dose: 200.0 mg/kg/injection, schedule: Q01DX001 (ip), vehicle: saline with Tween-80) was 98 % of control; the T/C (dose: 400.0 mg/kg/injection, schedule: Q01DX001 (ip), vehicle: saline with Tween-80) was 92 % of control.
Take `Nc1ccccc1OCCCn1cc(-c2ccc(Cl)c(Cl)c2)c(N)nc1=O`: the T/C was 103 % of control (dose: 7.5 mg/kg/injection, schedule: Q01DX005 (ip), vehicle: Klucel (hydroxypropylcellulose) (HPC)); 96 % of control (dose: 15.0 mg/kg/injection, schedule: Q01DX005 (ip), vehicle: Klucel (hydroxypropylcellulose) (HPC)); 93 % of control (dose: 30.0 mg/kg/injection, schedule: Q01DX005 (ip), vehicle: Klucel (hydroxypropylcellulose) (HPC)).
With `Cc1cccc(OCC(O)CNC(C)(C)C)c1C` (centres undefined), the T/C was 99 % of control (dose: 12.5 mg/kg/injection, schedule: Q01DX009 (ip), vehicle: saline with Tween-80); 98 % of control (dose: 25.0 mg/kg/injection, schedule: Q01DX009 (ip), vehicle: saline with Tween-80); 99 % of control (dose: 50.0 mg/kg/injection, schedule: Q01DX009 (ip), vehicle: saline with Tween-80); 99 % of control (dose: 100.0 mg/kg/injection, schedule: Q01DX009 (ip), vehicle: saline with Tween-80).
Consider `CC(=O)OCCNc1n[nH]c(=O)c2cnccc12`, for which the T/C was 110 % of control under setting [5], 104 % of control under setting [1], 101 % of control under setting [2] and 103 % of control under setting [3].
With `O=C(O)c1cccnc1C(=O)Nc1cccc2ccccc12`, the T/C reads like this: under setting [4], 102 % of control; under setting [5], 98 % of control; under setting [1], 99 % of control (2×) and 93 % of control; under setting [3], 86 % of control and 92 % of control.
Take `CC(C)(C)C1=CC(N2CCOCC2)(C(C)(C)C)C=C(C(C)(C)C)C1=O`: the T/C reads like this: under setting [6], 94 % of control; under setting [7], 103 % of control; under setting [8], 94 % of control.
For the molecule `CN(N=O)C1=NC(C)(CCl)P(=O)(NNc2ncccn2)O1` (centres undefined), the T/C runs as follows: (dose: 60.0 mg/kg/injection, schedule: Q01DX005 (ip), vehicle: saline) 108 % of control; (dose: 120.0 mg/kg/injection, schedule: Q01DX005 (ip), vehicle: saline) 110 % of control.

These data come from PubChem BioAssay AID330 (DTP/NCI, 2004).
